Measurements reported in patent US20240360177A1, “PEPTIDES WITH ANTIMICROBIAL ACTIVITIES” (priority 2021, published 2024).
Converted amounts (≈) assume the structure as drawn. Read-outs that look alike come from different tables or passages of the source. Non-standard residues stand in square brackets, D forms with d. Residues, ends and D or L forms follow the SMILES beside them. αMeL = CC(C)C[C@](C)(N)C(=O)O; hLeu = CC(C)CC[C@H](N)C(=O)O; NBuGly = CCCCNCC(=O)O; AEA = NCCOCC(=O)O; Ava = NCCCCC(=O)O

Row | MIC C. krusei (C. krusei; 24 h) [µg/mL] | MIC C. dubliniensis (C. dubliniensis; 24 h) [µg/mL] | MIC C. auris (C. auris; 24 h) [µg/mL] | MIC C. albicans (C. albicans; 24 h) [µg/mL] | MIC C. parapsilosis (C. parapsilosis; 24 h) [µg/mL] | MIC C. tropicalis (C. tropicalis; 24 h) [µg/mL] | MIC C. glabrata (C. glabrata; 24 h) [µg/mL] | Compound | MIC C. krusei (C. krusei; MMX 7135, 24 hrs) [µg/mL] | MIC C. dubliniensis (C. dubliniensis; ATCC MYA-578, 24 hrs) [µg/mL] | MIC C. auris (C. auris; CDC 386, 24 hrs) [µg/mL] | MIC C. albicans (C. albicans; ATCC 90028 or 90029, 24 hrs) [µg/mL] | MIC C. parapsilosis (C. parapsilosis; ATCC 22019, 24 hrs) [µg/mL] | MIC C. tropicalis (C. tropicalis; ATCC 90874, 24 hrs) [µg/mL] | MIC C. glabrata (C. glabrata; ATCC 90030, 24 hrs) [µg/mL]
1 | 1 (≈ 0.387 µM) | 0.5 (≈ 0.193 µM) | 1 (≈ 0.387 µM) | 0.5 (≈ 0.193 µM) | 0.5 (≈ 0.193 µM) | 0.5 (≈ 0.193 µM) | 0.5 (≈ 0.193 µM) | CC(C)C[C@](C)(NC(=O)[C@H](CCCNC(=N)N)NC(=O)[C@@H](CCCNC(=N)N)NC(=O)[C@H](CCCNC(=N)N)NC(=O)[C@@H](CCCNC(=N)N)NC(=O)[C@](C)(CC(C)C)NC(=O)[C@@H](CCCNC(=N)N)NC(=O)[C@H](CCCNC(=N)N)NC(=O)[C@@H](CCCNC(=N)N)NC(=O)[C@](C)(CC(C)C)NC(=O)[C@@H](CCCNC(=N)N)NC(=O)[C@H](CCCNC(=N)N)NC(=O)[C@H](N)CCCNC(=N)N)C(=O)N[C@H](CCCNC(=N)N)C(=O)N[C@@H](CCCNC(=N)N)C(=O)N[C@H](CCCNC(=N)N)C(=O)N[C@@H](CCCNC(=N)N)C(N)=O [SEQ ID NO: 37, rRr-Leu(Me)-rRr-Leu(Me)-rRrR-Leu(Me)-rRrR-NH2] (H-[dR]R[dR][αMeL][dR]R[dR][αMeL][dR]R[dR]R[αMeL][dR]R[dR]R-NH2) | – | – | – | – | – | – | –
2 | – | 0.5 (≈ 0.203 µM) | – | 0.5 (≈ 0.203 µM) | 1 (≈ 0.406 µM) | 0.5 (≈ 0.203 µM) | 1 (≈ 0.406 µM) | CC(C)CC[C@H](NC(=O)[C@@H](CCCNC(=N)N)NC(=O)[C@H](CCCNC(=N)N)NC(=O)[C@@H](CCCNC(=N)N)NC(=O)[C@@H]1CCCN1C(=O)[C@H](CCCNC(=N)N)NC(=O)[C@@H](CCCNC(=N)N)NC(=O)[C@H](CCCNC(=N)N)NC(=O)[C@@H](CCCNC(=N)N)NC(=O)[C@@H]1CCCN1C(=O)[C@@H](CCCNC(=N)N)NC(=O)[C@H](CCCNC(=N)N)NC(=O)[C@@H](CCCNC(=N)N)NC(=O)[C@@H]1CCCN1C(=O)[C@@H](CCCNC(=N)N)NC(=O)[C@H](CCCNC(=N)N)NC(=O)[C@H](N)CCCNC(=N)N)C(N)=O [SEQ ID NO: 93, rRr-P-rRr-P-rRrR-P-rRr(hLeu)-NH2] (H-[dR]R[dR]P[dR]R[dR]P[dR]R[dR]RP[dR]R[dR][hLeu]-NH2) | – | – | – | – | – | – | –
3 | – | 0.5 (≈ 0.205 µM) | – | 1 (≈ 0.41 µM) | 1 (≈ 0.41 µM) | 1 (≈ 0.41 µM) | 0.5 (≈ 0.205 µM) | CC(C)CC[C@H](NC(=O)[C@@H](CCCNC(=N)N)NC(=O)[C@H](CCCNC(=N)N)NC(=O)[C@@H](CCCNC(=N)N)NC(=O)[C@@H]1CCCN1C(=O)[C@H](CCCNC(=N)N)NC(=O)[C@@H](CCCNC(=N)N)NC(=O)[C@H](CCCNC(=N)N)NC(=O)[C@@H](CCCNC(=N)N)NC(=O)[C@@H]1CCCN1C(=O)[C@@H](CCCNC(=N)N)NC(=O)[C@H](CCCNC(=N)N)NC(=O)[C@@H](CCCNC(=N)N)NC(=O)[C@@H]1CCCN1C(=O)[C@@H](CCCNC(=N)N)NC(=O)[C@H](CCCNC(=N)N)NC(=O)[C@@H](N)CCC(C)C)C(N)=O [SEQ ID NO: 95, (hLeu)Rr-P-rRr-P-rRrR-P-rRr(hLeu)-NH2] (H-[hLeu]R[dR]P[dR]R[dR]P[dR]R[dR]RP[dR]R[dR][hLeu]-NH2) | – | – | – | – | – | – | –

More lines, now with the values behind:

Row | Compound | MIC C. krusei (C. krusei; 24 h) [µg/mL] | MIC C. dubliniensis (C. dubliniensis; 24 h) [µg/mL] | MIC C. auris (C. auris; 24 h) [µg/mL] | MIC C. albicans (C. albicans; 24 h) [µg/mL] | MIC C. parapsilosis (C. parapsilosis; 24 h) [µg/mL] | MIC C. tropicalis (C. tropicalis; 24 h) [µg/mL] | MIC C. glabrata (C. glabrata; 24 h) [µg/mL] | MIC C. krusei (C. krusei; MMX 7135, 24 hrs) [µg/mL] | MIC C. dubliniensis (C. dubliniensis; ATCC MYA-578, 24 hrs) [µg/mL] | MIC C. auris (C. auris; CDC 386, 24 hrs) [µg/mL] | MIC C. albicans (C. albicans; ATCC 90028 or 90029, 24 hrs) [µg/mL] | MIC C. parapsilosis (C. parapsilosis; ATCC 22019, 24 hrs) [µg/mL] | MIC C. tropicalis (C. tropicalis; ATCC 90874, 24 hrs) [µg/mL] | MIC C. glabrata (C. glabrata; ATCC 90030, 24 hrs) [µg/mL]
4 | N=C(N)NCCC[C@@H](N)C(=O)N[C@@H](CCCNC(=N)N)C(=O)N[C@H](CCCNC(=N)N)C(=O)NCCCCC(=O)N[C@H](CCCNC(=N)N)C(=O)N[C@@H](CCCNC(=N)N)C(=O)N[C@H](CCCNC(=N)N)C(=O)NCCCCC(=O)N[C@H](CCCNC(=N)N)C(=O)N[C@@H](CCCNC(=N)N)C(=O)N[C@H](CCCNC(=N)N)C(=O)N[C@@H](CCCNC(=N)N)C(=O)NCCCCC(=O)N[C@H](CCCNC(=N)N)C(=O)N[C@@H](CCCNC(=N)N)C(=O)N[C@H](CCCNC(=N)N)C(=O)N[C@@H](CCCNC(=N)N)C(=O)O [SEQ ID NO: 19, rRr-(Ava)-rRr-(Ava)-rRrR-(Ava)-rRrR] (H-[dR]R[dR][Ava][dR]R[dR][Ava][dR]R[dR]R[Ava][dR]R[dR]R-OH) | 1 (≈ 0.4 µM) | 0.5 (≈ 0.2 µM) | 2 (≈ 0.799 µM) | 0.5 (≈ 0.2 µM) | 0.25 (≈ 0.0999 µM) | 0.5 (≈ 0.2 µM) | 0.5 (≈ 0.2 µM) | – | – | – | – | – | – | –
5 | N=C(N)NCCC[C@@H](N)C(=O)N[C@@H](CCCNC(=N)N)C(=O)N[C@H](CCCNC(=N)N)C(=O)NCCCCC(=O)N[C@H](CCCNC(=N)N)C(=O)N[C@@H](CCCNC(=N)N)C(=O)N[C@H](CCCNC(=N)N)C(=O)NCCCCC(=O)N[C@H](CCCNC(=N)N)C(=O)N[C@@H](CCCNC(=N)N)C(=O)N[C@H](CCCNC(=N)N)C(=O)N[C@@H](CCCNC(=N)N)C(=O)NCCCCC(=O)N[C@H](CCCNC(=N)N)C(=O)N[C@@H](CCCNC(=N)N)C(=O)N[C@H](CCCNC(=N)N)C(=O)N[C@@H](CCCNC(=N)N)C(=O)N[C@@H](CCC(=O)O)C(=O)O [SEQ ID NO: 20, rRr-(Ava)-rRr-(Ava)-rRrR-(Ava)-rRrR-Glu] (H-[dR]R[dR][Ava][dR]R[dR][Ava][dR]R[dR]R[Ava][dR]R[dR]RE-OH) | – | – | – | – | – | – | – | 2 (≈ 0.76 µM) | 0.5 (≈ 0.19 µM) | 16 (≈ 6.08 µM) | 0.5 (≈ 0.19 µM) | 0.25 (≈ 0.095 µM) | 0.5 (≈ 0.19 µM) | 1 (≈ 0.38 µM)
6 | N=C(N)NCCC[C@@H](N)C(=O)N[C@@H](CCCNC(=N)N)C(=O)N[C@H](CCCNC(=N)N)C(=O)N[C@@H](CCCNC(=N)N)C(=O)NCCCCC(=O)N[C@H](CCCNC(=N)N)C(=O)N[C@@H](CCCNC(=N)N)C(=O)N[C@H](CCCNC(=N)N)C(=O)N[C@@H](CCCNC(=N)N)C(=O)NCCCCC(=O)N[C@H](CCCNC(=N)N)C(=O)N[C@@H](CCCNC(=N)N)C(=O)N[C@H](CCCNC(=N)N)C(=O)NCCCCC(=O)N[C@H](CCCNC(=N)N)C(=O)N[C@@H](CCCNC(=N)N)C(=O)N[C@H](CCCNC(=N)N)C(N)=O [SEQ ID NO: 21, rRrR-(Ava)-rRrR-(Ava)-rRr-(Ava)-rRr-NH2] (H-[dR]R[dR]R[Ava][dR]R[dR]R[Ava][dR]R[dR][Ava][dR]R[dR]-NH2) | 0.5 (≈ 0.2 µM) | 0.5 (≈ 0.2 µM) | 0.5 (≈ 0.2 µM) | 0.5 (≈ 0.2 µM) | 0.25 (≈ 0.1 µM) | 0.5 (≈ 0.2 µM) | 0.5 (≈ 0.2 µM) | – | – | – | – | – | – | –
7 | CCCCN(CC(=O)N[C@H](CCCNC(=N)N)C(=O)N[C@@H](CCCNC(=N)N)C(=O)N[C@H](CCCNC(=N)N)C(=O)N[C@@H](CCCNC(=N)N)C(N)=O)C(=O)[C@H](CCCNC(=N)N)NC(=O)[C@@H](CCCNC(=N)N)NC(=O)[C@H](CCCNC(=N)N)NC(=O)[C@@H](CCCNC(=N)N)NC(=O)CN(CCCC)C(=O)[C@@H](CCCNC(=N)N)NC(=O)[C@H](CCCNC(=N)N)NC(=O)[C@@H](CCCNC(=N)N)NC(=O)CN(CCCC)C(=O)[C@@H](CCCNC(=N)N)NC(=O)[C@H](CCCNC(=N)N)NC(=O)[C@H](N)CCCNC(=N)N [SEQ ID NO: 35, rRr-(ButylGly)-rRr-(ButylGly)-rRrR-(ButylGly)-rRrR-NH2] (H-[dR]R[dR][NBuGly][dR]R[dR][NBuGly][dR]R[dR]R[NBuGly][dR]R[dR]R-NH2) | 0.5 (≈ 0.197 µM) | 0.5 (≈ 0.197 µM) | 0.5 (≈ 0.197 µM) | 0.5 (≈ 0.197 µM) | 0.25 (≈ 0.0983 µM) | 0.5 (≈ 0.197 µM) | 0.5 (≈ 0.197 µM) | – | – | – | – | – | – | –
8 | N=C(N)NCCC[C@@H](N)C(=O)N[C@@H](CCCNC(=N)N)C(=O)N[C@H](CCCNC(=N)N)C(=O)NCCCCC(=O)N[C@H](CCCNC(=N)N)C(=O)N[C@@H](CCCNC(=N)N)C(=O)N[C@H](CCCNC(=N)N)C(=O)NCCCCC(=O)N[C@H](CCCNC(=N)N)C(=O)N[C@@H](CCCNC(=N)N)C(=O)N[C@H](CCCNC(=N)N)C(=O)N[C@@H](CCCNC(=N)N)C(=O)NCCOCC(=O)N[C@H](CCCNC(=N)N)C(=O)N[C@@H](CCCNC(=N)N)C(=O)N[C@H](CCCNC(=N)N)C(=O)N[C@@H](CCCNC(=N)N)C(N)=O [SEQ ID NO: 49, rRr-(Ava)-rRr-(Ava)-rRrR-(Aea)-rRrR-NH2] (H-[dR]R[dR][Ava][dR]R[dR][Ava][dR]R[dR]R[AEA][dR]R[dR]R-NH2) | – | 0.5 (≈ 0.2 µM) | – | 1 (≈ 0.4 µM) | 0.5 (≈ 0.2 µM) | 0.5 (≈ 0.2 µM) | 1 (≈ 0.4 µM) | – | – | – | – | – | – | –
9 | N=C(N)NCCC[C@@H](N)C(=O)N[C@@H](CCCNC(=N)N)C(=O)N[C@H](CCCNC(=N)N)C(=O)NCCCCC(=O)N[C@H](CCCNC(=N)N)C(=O)N[C@@H](CCCNC(=N)N)C(=O)N[C@H](CCCNC(=N)N)C(=O)NCCOCC(=O)N[C@H](CCCNC(=N)N)C(=O)N[C@@H](CCCNC(=N)N)C(=O)N[C@H](CCCNC(=N)N)C(=O)N[C@@H](CCCNC(=N)N)C(=O)NCCOCC(=O)N[C@H](CCCNC(=N)N)C(=O)N[C@@H](CCCNC(=N)N)C(=O)N[C@H](CCCNC(=N)N)C(=O)N[C@@H](CCCNC(=N)N)C(N)=O [SEQ ID NO: 51, rRr-(Ava)-rRr-(Aea)-rRrR-(Aea)-rRrR-NH2] (H-[dR]R[dR][Ava][dR]R[dR][AEA][dR]R[dR]R[AEA][dR]R[dR]R-NH2) | – | 0.25 (≈ 0.0998 µM) | – | 0.5 (≈ 0.2 µM) | 0.25 (≈ 0.0998 µM) | 0.5 (≈ 0.2 µM) | 1 (≈ 0.399 µM) | – | – | – | – | – | – | –
10 | rR-(Apg)-rR-(Apg)-rRr-(Apg)-rRr-NH2 [SEQ ID NO: 39] | – | 0.12 | – | 0.25 | 0.12 | 0.25 | 8 | – | – | – | – | – | – | –
